Reference: patent EP2766407B1, “PENTABLOCK POLYMERS” (The Curators Of The University Of Missouri, priority 2011, dated 2013)

Columns and labels:
Format in all cases: cell-based
[1] = tested on: PCEC; assay: MTS assay (cytotoxicity), Pentablock Polymer B protocol; details: Triton X control, blank = 100
Description: Pentablock Polymer B: Cytotoxicity for Pentablock Polymer B was performed at different concentration ranging from 0.5-10 mg/ml. The plates were seeded with cell density of 10,000 cells/100 µL. After 24 hours of incubation fresh medium containing hydrogel of different concentration ranging from 0.5-10 mg/ml were added and further incubated for 24 hours. MTS assay is based on the reduction of the tetrazolium salt (yellow) to fromazone (purple) by mitochondrial enzymes of metabolic active cells. The amount of the fromazone is directly proportional to viable cells. In MTS assay Trioton X treated cells were served as negative control and untreated cells served as positive control. Then, 100 µL of serum free medium containing 20 µL of MTS solution was added to the 96 well plates, and these plates were incubated at 37 °C and 5% CO2 for 4 hours. After incubation, the absorbance of each well was measured at 450 nm by ELISA plate reader. The absorbance is directly proportional to viability of cells. Table 1: MTS assay on Pentablock Polymer A

[2] = tested on: ARPE-19 (human retinal pigment epithelial cell line); assay: as above; details: ARPE 19, Triton X control; blank = 100
Description: (§1) The cytotoxicity and biocompatibility of the Pentablock Polymer A and Pentablock Polymer B were investigated in several cell lines. ARPE-19 (human retinal pigment epithelial cell line), SIRC (rabbit corneal cell line), and RAW 264.7 (mouse macrophage cell line) were obtained from American Type Culture Collection ("ATCC"). ARPE-19 cells were cultured in Dubelcco's modified Eagle's medium ("DMEM/F12") supplemented with 10% fetal bovine serum ("FBS"), 100 U/mL penicillin and 100 µg/mL of streptomycin. SIRC cells were cultured in minimum essential medium ("MEM") and supplemented with 10% FBS, 100 U/mL of penicillin and 100 µg/mL of streptomycin. RAW 264.7 (Mouse macrophage cells) cells were cultured in DMEM/F12supplemented with 10% FBS, 10% of nonessential amino acids, 100 U/mL penicillin and 100 µg/mL of streptomycin. The pH of the medium was adjusted to 7.4 and cells were incubated in humidified atmosphere at 37 °C temperature with 5% CO2 environment. The cell cultures were exposed directly to different concentrations of Pentablock Polymer A and Pentablock Polymer B. […]
(§2) MTS assay is based on the reduction of the tetrazolium salt (yellow) to fromazone (purple) by mitochondrial enzymes of metabolic active cells. […] After incubation, the absorbance of each well was measured at 450 nm by ELISA plate reader. The absorbance is directly proportional to viability of cells. […]

[3] = tested on: RAW 264.7 (mouse macrophage cell line); assay: MTS assay (cytotoxicity), Pentablock Polymer A protocol; details: RAW 264.7, Triton X control; blank = 100
Description: as §1, §2

[4] = tested on: SIRC (rabbit corneal cell line); assay: as above; details: Triton X control, blank = 100
Description: as §1, §2

Substance Triton X has an MTS assay [1] of 0.000 ± 1.099, an MTS assay [2] of 0.000 ± 0.491 and an MTS assay [3] of 0 ± 0.594. For the same substance, the MTS assay [4] was 0 ± 0.271.
